Measurements: ChEMBL document CHEMBL1129240, “Synthesis of acyclo-C-nucleosides in the imidazo[1,2-a]pyridine and pyrimidine series as antiviral agents” (J Med Chem, 1996)
≈ marks a conversion by molar mass, not a printed value.

How the values were obtained:
[1] = Cytotoxic concentration required to reduce CEM cell viability by 50%; type: cell-based; settings: human, CCRF-CEM (CEM) cells
[2] = Cytotoxic concentration required to cause microscopically detectable alteration of normal cell morphology of E6SM cells; type: cell-based; settings: human, read-out: CC50
[3] = Minimum cytotoxic concentration required to reduce human embryonic lung (HEL) cell proliferation by 50%; type: cell-based; settings: human embryonic lung (HEL) cells, read-out: MCC
[4] = system: Cytomegalovirus; assay: Minimum Inhibitory Concentration (MIC) tested for activity against Cytomegalovirus (CMV) using AD169 strain; type: functional; settings: Human betaherpesvirus 5
[5] = system: Human alphaherpesvirus 3; assay: Minimum Inhibition Concentration (MIC) for activity against Varicella-Zoster Virus(VZV) using YS(TK+) strain; type: functional
[6] = system: Cytomegalovirus; assay: Minimum Inhibitory Concentration (MIC) tested for activity against Cytomegalovirus (CMV) using Davis strain; type: functional; settings: Human betaherpesvirus 5
[7] = system: Human alphaherpesvirus 3; assay: Minimum Inhibition Concentration (MIC) for activity against Varicella-Zoster Virus(VZV) using YS/R (TK-) strain; type: functional
[8] = Cytotoxic concentration required to cause microscopically detectable alteration of normal cell morphology of HeLa cells; type: cell-based; settings: human, read-out: CC50
[9] = system: Human alphaherpesvirus 3; assay: Minimum Inhibitory Concentration (MIC) for activity against Varicella-Zoster Virus(VZV) using OKA (TK+) strain; type: functional
[10] = Cytotoxic concentration required to cause microscopically detectable alteration of normal cell morphology of Vero cells; type: cell-based; settings: chlorocebus sabaeus, read-out: CC50
[11] = system: Human alphaherpesvirus 3; assay: Minimum Inhibition Concentration (MIC) for activity against Varicella-Zoster Virus(VZV) using YS/R (TK-) strain.; type: functional
[12] = system: Human alphaherpesvirus 3; assay: Minimum Inhibitory Concentration (MIC) tested for activity against Varicella-Zoster Virus(VZV) using YS(TK+) strain.; type: functional
[13] = system: Human alphaherpesvirus 3; assay: Minimum Inhibition Concentration( MIC) for activity against Varicella-Zoster Virus(VZV) using 07/1 (TK-) strain.; type: functional
[14] = Minimum cytotoxic concentration to reduce the HEL cell proliferation by 50%; type: cell-based; settings: human, HEL cells; read-out: MCC
[15] = system: Human alphaherpesvirus 3; assay: Minimum Inhibitory Concentration (MIC) tested for activity against Varicella-Zoster Virus(VZV) using 07/1 (TK-) strain.; type: functional
[16] = system: Human alphaherpesvirus 3; assay: Minimum Inhibitory Concentration (MIC) tested for activity against Varicella-Zoster Virus(VZV) using YS/R (TK-) strain.; type: functional
[17] = system: Human alphaherpesvirus 3; assay: Minimum Inhibition Concentration (MIC) for activity against Varicella-Zoster Virus(VZV) using OKA (TK+) strain; type: functional
[18] = system: Human alphaherpesvirus 3; assay: Minimum Inhibition Concentration (MIC) for activity against Varicella-Zoster Virus(VZV) using YS(TK+) strain.; type: functional
[19] = system: Human alphaherpesvirus 3; assay: Minimum Inhibition Concentration (MIC) for activity against Varicella-Zoster Virus(VZV) using 07/1 (TK-) strain.; type: functional
[20] = system: Cytomegalovirus; assay: Minimum Inhibition Concentration (MIC) for activity against Cytomegalovirus (CMV) using Davis strain; type: functional; settings: Human betaherpesvirus 5
[21] = system: Human alphaherpesvirus 3; assay: Minimum Inhibition Concentration (MIC) for activity against Varicella-Zoster Virus (VZV) using YS/R (TK-) strain.; type: functional
[22] = system: Cytomegalovirus; assay: Minimum Inhibition Concentration (MIC) for activity against Cytomegalovirus (CMV) using AD169 strain; type: functional; settings: Human betaherpesvirus 5
[23] = system: Human alphaherpesvirus 3; assay: Minimum Inhibition Concentration (MIC) for activity against Varicella-Zoster Virus (VZV) using YS (TK+) strain.; type: functional

SMILES	CC50 [1] [µg/mL]	MCC [2] [µg/mL]	MIC [4] [µg/mL]	MIC [6] [µg/mL]	MCC [8] [µg/mL]	MIC [9] [µg/mL]	MCC [10] [µg/mL]	MIC [12] [µg/mL]	CC50 [14] [µg/mL]	MIC [15] [µg/mL]	MIC [16] [µg/mL]	also measured
OCCSCc1cnc2ccccn12	29 (≈ 139 µM)	400	40 (≈ 192 µM)	35 (≈ 168 µM)	200	25 (≈ 120 µM)	400					CC50 [3]: > 100 µg/mL; MIC [5]: 25 µg/mL (≈ 120 µM); MIC [7]: 25 µg/mL (≈ 120 µM)
CCSCc1cnc2cc(C)ccn12	11 (≈ 53.3 µM)	40	> 10	10 (≈ 48.5 µM)	100	> 10	200	> 10	35 (≈ 170 µM)			MIC [11]: > 10 µg/mL; MIC [13]: > 10 µg/mL
Cc1cccc2ncc(CSCC(O)CO)n12 (stereo not drawn)	45 (≈ 178 µM)	400	> 10	25 (≈ 99.1 µM)	> 100	> 40	400	> 40	75 (≈ 297 µM)	> 40	> 40	
NC(=O)c1ncn([C@@H]2O[C@H](CO)[C@@H](O)[C@H]2O)n1 [RIBAVIRIN]		> 400			> 200		> 400					
O=c1[nH]c(=O)n([C@H]2C[C@H](O)[C@@H](CO)O2)cc1/C=C/Br [BRIVUDINE]		> 400			> 400		> 400		> 50			MIC [17]: 0.0009 µg/mL (≈ 0.0027 µM); MIC [11]: > 20 µg/mL; MIC [18]: 0.002 µg/mL (≈ 0.006 µM); MIC [19]: > 50 µg/mL
OCCCSCc1cnc2c(Cl)cc(C(F)(F)F)cn12	27 (≈ 83.1 µM)	100	> 40	> 40	100	> 40	> 100		> 100	> 40	> 40	MIC [18]: > 40 µg/mL
Cc1ccn2c(CSCC(O)CO)cnc2c1 (stereo not drawn)	> 100	> 400	> 50	> 50	400	100 (≈ 396 µM)	> 400	> 100	> 100		50 (≈ 198 µM)	
Cc1c(Br)c(C)n2c(CSCCO)cnc2c1Br	17 (≈ 43.1 µM)	100	> 10	> 10	> 200	> 40	> 200		70 (≈ 178 µM)	> 40	> 10	MIC [18]: > 40 µg/mL
Nc1nc2c(ncn2COC(CO)CO)c(=O)[nH]1 [GANCICLOVIR]		> 100	0.5 (≈ 1.96 µM)	0.5 (≈ 1.96 µM)								
Cc1cccc2ncc(CSCC(C)O)n12 (stereo not drawn)	27 (≈ 114 µM)	400	> 10	> 10	100		> 400	20 (≈ 84.6 µM)	90 (≈ 381 µM)	24 (≈ 102 µM)	24 (≈ 102 µM)	MIC [17]: 30 µg/mL (≈ 127 µM)
Cc1ccn2c(CSCCCO)cnc2c1	17 (≈ 71.9 µM)	> 100	30 (≈ 127 µM)	30 (≈ 127 µM)	40		> 40		> 100		> 40	MIC [17]: > 40 µg/mL; MIC [18]: > 40 µg/mL; MIC [19]: > 40 µg/mL
Cc1ccn2c(CSCc3ccccc3)cnc2c1	3.1 (≈ 11.6 µM)	100			40		40		45 (≈ 168 µM)			MIC [17]: 15 µg/mL (≈ 55.9 µM); MIC [20]: 3.5 µg/mL (≈ 13 µM); MIC [21]: 10 µg/mL (≈ 37.3 µM); MIC [22]: 3.5 µg/mL (≈ 13 µM); MIC [23]: 17 µg/mL (≈ 63.3 µM)
O=c1[nH]cnc2c1ncn2[C@H]1CC[C@@H](CO)O1 [DIDANOSINE]	> 100											
c1ccc(CSCc2cnc3ncccn23)cc1	4.2 (≈ 16.4 µM)	100	2 (≈ 7.83 µM)	2 (≈ 7.83 µM)	40	8.8 (≈ 34.5 µM)	200	2.4 (≈ 9.4 µM)	40 (≈ 157 µM)	5 (≈ 19.6 µM)		MIC [11]: > 10 µg/mL
Cc1c(Br)cn2c(CSCCO)cnc2c1Br	37 (≈ 97.3 µM)	> 200	20 (≈ 52.6 µM)	30 (≈ 78.9 µM)	> 100	35 (≈ 92.1 µM)	> 40	> 40	50 (≈ 132 µM)		20 (≈ 52.6 µM)	MIC [19]: 22 µg/mL (≈ 57.9 µM)
